The test concerns MCF7 viability, PrestoBlue fluorescence. As to the kind of experiment: antiproliferative effect, MCF7 breast cancer line – cell-based, mTOR inhibitor project, dose response (AID 1224901).

SMILES strings stand for the structures.

In general, EC50 refers to the concentration needed to bring the measured effect to its halfway point. Consider `CCOC(Cn1nc(-c2ccc3oc(N)nc3c2)c2c(N)ncnc21)OCC`, for which the EC50 is 8 nM.

(Values after PubChem BioAssay AID1224901.)
